Legend:
[1] = Mouse Writhing Inhibition Assay; type: in vivo, Cox standard strain albino male mice; settings: oral gavage 60 min before acetic acid 55 mg./kg. i.p., active = less than ten writhes, read-out: Minimum active oral dose, Mouse Writhing
Procedure: Writhing, which is characterized by contraction of the abdominal musculature, extension of the hindlegs, and rotation of the trunk, was induced in Cox standard strain albino male mice. The mice, weighing 18-24 grams, were fasted overnight and given the test compound by gavage in an acacia suspension (5%) 60 minutes before writhing was induced by the intraperitoneal administration of 55 mg./kg. of acetic acid (0.55 percent). Each treatment group consisted of 3 mice. The total number of writhes for the treatment group was determined during a 5-minute observation starting 5 minutes after acetic acid administration.

GABA receptor = experiment: In vitro activation of GABA binding ([3H]GABA, Triton X-100 treated membrane protein); settings: average of one or more tests, read-out: SC50 GABA (nanomolar concentration producing a 50% increase in binding)
Procedure: (§1) The novel compounds of this invention were examined for their in vitro ability to activate GABA and benzodiazepine (BZ) binding. To measure the effect of a compound on GABA binding, Triton X-100 (octylphenoxy polyethoxyethanol, Rohm and Haas Co.) treated membrane protein was incubated in the presence of the compound and [^3 H]GABA as detailed by Horng and Wong, J. Neurochemistry, 32 (5), 1379 (1979). To examine BZ binding, H-flunirazepam and the compounds were incubated with native membrane protein as reported by Wong, et al, Brain Res. Bull., 5 (Suppl. 2), 853 (1980). The results in Table 1 are the nanomolar concentrations of compounds (by Example No.) which produced a 50 percent increase (SC50) in GABA or BZ binding. Each result is the average of one or more tests.

benzodiazepine receptor = experiment: In vitro activation of benzodiazepine (BZ) binding (flunirazepam, native membrane protein); settings: average of one or more tests, read-out: SC50 BZ (nanomolar concentration producing a 50% increase in binding)
Procedure: as §1

[2] = Metrazole Induced Convulsion Inhibition Assay; type: in vivo, Cox standard strain albino male mice; settings: Mus musculus; oral gavage, 1 h before metrazole 110 mg./kg. i.p.; active = total score of 6 or less (3 mice, range 0-12); read-out: Minimum active oral dose, Metrazole
Procedure: (§2) In this assay, a compound to be tested was suspended in acacia (5%) and administered by gavage to each of three Cox standard strain albino male mice (18-24 grams) at the dose level being investigated. One hour after the oral administration, a water solution of metrazole (pentylenetetrazole) was administered by the intraperitoneal route to each mouse at a dose of 110 mg./kg. […] A score of 0 was assigned to a mouse not showing any signs of convulsant activity; a score of 1 was given to mice developing clonic convulsions; a score of 2 was given to mice showing flexor tonic convulsions; a score of 3 was given to mice showing extensor tonic convulsions; and a score of 4 was given to mice that died within the one hour. The scores of the three mice were totalled for each compound and dose level. The scores can range from 0 to 12; a score of 6 or less was interpreted as indicative of an active compound at that dose level. Values reported in Table 2 below are the minimum oral dose levels (mg./kg.) where activity as defined above was observed.

[3] = Electroshock Induced Convulsion Inhibition Assay; type: in vivo, Cox standard strain albino male mice; settings: Mus musculus; oral; 0.1 second, 50 milliampere corneal electroshock; active = total score of 6 or less; read-out: Minimum active oral dose, Electro-Shock
Procedure: as §2
The drug administration and test conditions used in this assay were similar to those used in the metrazole induced convulsion inhibition assay above except that a 0.1 second, 50 milliampere electroshock through corneal electrodes induced the convulsion instead of metrazole. The animals were examined and evaluated immediately after the electroshock and were scored as before. The results in Table 2 are expressed as the lowest dose of each compound tested which was active as previously defined. For comparison, 18 milliamperes was usually sufficient to produce extensor tonic convulsions in about half of the control animals; at 50 milliamperes, almost all control animals died. Diazepam was active at about 1 mg./kg.

[4] = Appetite Suppression Assay; type: in vivo, Cox standard strain albino male mice; settings: Mus musculus; oral gavage 30 min before feeding; active = weight gain of less than 10% of weight lost on fasting; read-out: Minimum active oral dose, Appetite Suppression
Procedure: In this test, groups of three Cox standard strain albino male mice were weighed (18-24 grams) and then fasted overnight (16-18 hours). The mice were reweighed and then given the test compound in a suspension of acacia (5%) by gavage. Thirty minutes after oral administration, the mice were allowed to eat freely for one hour. After the eating period, the mice were weighed once more. The percent of weight gained (from the time the mice were given the test compound to after the feeding period) compared to weight lost during the fast period was calculated. The non-drug treated control animals gained back 35-55% of the weight lost on fasting. Any compound at the dose level tested which produced a weight gain of less than 10% was considered to be active. The results in Table 2 report the lowest dose level in which there was activity for each compound tested. Dextroamphetamine sulfate is active in this system at about 2.5 mg./kg.

EC50 (GABA receptor) [nM]	EC50 (benzodiazepine receptor) [nM]	SMILES	minimal effective dose [1] [mg/kg]	minimal effective dose [2] [mg/kg]	minimal effective dose [3] [mg/kg]	minimal effective dose [4] [mg/kg]
5200	515	Cc1ccc(-c2nnc(N3CCCCC3)nc2-c2ccc(C)cc2)cc1 [Example 20, 5,6-bis(4-methylphenyl)-3-(1-piperidinyl)-1,2,4-triazine]	12.5	12.5	50	12.5
2000	600	Cc1ccc(-c2nnc(N3CCCCCC3)nc2-c2ccc(C)cc2)cc1 [Example 21, 1-[5,6-bis(4-methylphenyl)-1,2,4-triazin-3-yl]-hexahydro-1H-azepine]	> 200	> 200	> 200	> 200
400	700	Cc1ccc(-c2nnc(N3CCCC(O)C3)nc2-c2ccc(C)cc2)cc1 (stereo not drawn) [Example 23, 1-[5,6-bis(4-methylphenyl)-1,2,4-triazin-3-yl]-3-piperidinol]	12.5	50	50	12.5
80	90	COC1CCN(c2nnc(-c3ccc(C)cc3)c(-c3ccc(C)cc3)n2)CC1 [Example 26, 3-(4-methoxy-1-piperidinyl)-5,6-bis(4-methylphenyl)-1,2,4-triazine]	6.2	6.2	6.2	6.2
200	430	Cc1ccc(-c2nnc(N3CCC(=O)CC3)nc2-c2ccc(C)cc2)cc1 [Example 39, 1-[5,6-bis(4-methylphenyl)-1,2,4-triazin-3-yl]-4-piperidinone]	50	50	50	12.5

Second part, the compound before the results:

SMILES	EC50 (GABA receptor) [nM]	EC50 (benzodiazepine receptor) [nM]	minimal effective dose [1] [mg/kg]	minimal effective dose [2] [mg/kg]	minimal effective dose [3] [mg/kg]	minimal effective dose [4] [mg/kg]
CC(=O)OC1CCN(c2cnc(-c3ccc(C)cc3)c(-c3ccc(C)cc3)n2)CC1 [Example 43, 1-[5,6-bis(4-methylphenyl)pyrazin-2-yl]-4-piperidinol, acetate (ester)]	7	10	100	25	100	25
Cc1ccc(-c2nnc(N3CCC(OS(C)(=O)=O)CC3)nc2-c2ccc(C)cc2)cc1 [Example 32, 1-[5,6-bis(4-methylphenyl)-1,2,4-triazin-3-yl]-4-piperidinol, methane sulfonate (ester)]	68	6	0.4	> 6.25	> 6.25	0.4
CC(=O)OC1CCN(c2nnc(-c3ccc(C)cc3)c(-c3ccc(C)cc3)n2)CC1 [Example 12, 1-[5,6-bis(4-methylphenyl)-1,2,4-triazin-3-yl]-4-piperidinol, acetate (ester)]	3.3	5.5	12.5	6.25	25	12.5
Cc1ccc(-c2nnc(N3CCC(OC(N)=O)CC3)nc2-c2ccc(C)cc2)cc1 [Example 29, 1-[5,6-bis(4-methylphenyl)-1,2,4-triazin-3-yl]-4-piperidinol, carbamate (ester)]	56	15	1.56	> 6.25	> 6.25	0.4
CCC(=O)OC1CCN(c2nnc(-c3ccc(C)cc3)c(-c3ccc(C)cc3)n2)CC1 [Example 15, 1-[5,6-bis(4-methylphenyl)-1,2,4-triazin-3-yl]-4-piperidinol, propanoate (ester)]	10	19	12.5	12.5	12.5	12.5
Cc1ccc(-c2nnc(N3CCC(OS(=O)(=O)c4ccc(C)cc4)CC3)nc2-c2ccc(C)cc2)cc1 [Example 33, 1-[5,6-bis(4-methylphenyl)-1,2,4-triazin-3-yl]-4-piperidinol, 4-methylbenzene sulfonate (ester)]	8000	1200	> 200	> 200	> 200	> 200
CC(=O)OC1CCN(c2nnc(-c3ccc(Cl)cc3)c(-c3ccc(Cl)cc3)n2)CC1 [Example 13, 1-[5,6-bis[4-chlorophenyl]-1,2,4-triazin-3-yl]-4-piperidinol, acetate (ester)]	15	12	> 50	50	> 50	> 50
Cc1ccc(-c2nnc(N3CCC(OC(=O)c4ccccc4)CC3)nc2-c2ccc(C)cc2)cc1 [Example 17, 1-[5,6-bis(4-methylphenyl)-1,2,4-triazin-3-yl]-4-piperidinol, benzoate (ester)]	500	1000	> 200	> 200	> 200	> 200
Cc1ccc(-c2nnc(N3CCC4(CC3)OCCO4)nc2-c2ccc(C)cc2)cc1 [Example 38, 8-[5,6-bis(4-methylphenyl)-1,2,4-triazin-3-yl]-1,4-dioxa-8-azaspiro(4.5)decane]	> 10000	8000	> 200	> 200	> 200	> 200

Reference: US4585861A, “1,2,4-triazine derivatives” (Eli Lilly and Company, priority 1985, dated 1986)
